In brackets after ≈: the same amount, converted by molar mass.
What was measured:
[1] = test system: mupirocin resistant S. aureus strains (MMX 1013, MMX 7779, MMX 7782, MMX 8845, MMX 9202); assay: MIC versus mupirocin resistant S. aureus panel; format: cell-based; details: Staphylococcus aureus; mupirocin resistant S. aureus MMX 1013, MMX 7779, MMX 7782, MMX 8845, MMX 9202
Procedure: (§1) Using a broth microdilution assay according to Clinical Laboratory Standards Institute (CSLI) guidelines, we tested 5-(2,5-bis(4-chloro-2-isopropylphenyl)thiophen-3-yl)-1H-tetrazole (“Test Article” in below table) to establish MICs against a broad range of MDR bacteria and noted substantive activity versus methicillin-resistant Staphylococcus aureus (MRSA), vancomycin-resistant Enterococcus (VRE) and Streptococcus spp. Antimicrobial susceptibility testing was performed by a microdilution broth assay according to CLSI guidelines. The inoculum was prepared from stationary-phase cultures diluted in water. Microtiter plate wells received aliquots of 100 μL of the compound diluted in Mueller-Hinton II cation adjusted media. The final concentration of compound typically ranged from 250 to 0.125 μg/ml in serial two-fold dilutions. In addition to the test compound, growth and sterility controls were included, along with DMSO vehicle control rows. The microtiter plates were inoculated with 5×10^5 bacteria and incubated overnight at 35° C. in a humidified atmosphere.

fatty acid synthase = assay: in vitro enzyme assay, selectivity; format: biochemical; details: ACP utilizing bacterial enzyme
[2] = test system: S. aureus MRSA clinical isolate penicillin and erythromycin resistant; assay: broth microdilution MIC (CLSI); format: cell-based; details: Staphylococcus aureus; S. aureus MRSA clinical isolate penicillin and erythromycin resistant; read-out: Antibacterial activity (MIC)
Procedure: as §1

[3] = test system: S. aureus MRSA clinical isolate from Manchester; assay: broth microdilution MIC (CLSI); format: cell-based; details: Staphylococcus aureus; S. aureus MRSA clinical isolate from Manchester; read-out: Antibacterial activity (MIC)
Procedure: as §1

[4] = test system: E. faecium ATCC51299 vancomycin resistant; assay: broth microdilution MIC (CLSI); format: cell-based; details: Enterococcus faecium, read-out: Antibacterial activity (MIC)
Procedure: as §1

S. aureus MRSA ATCC43300 = assay: broth microdilution MIC (CLSI); format: cell-based; details: Staphylococcus aureus; S. aureus MRSA ATCC43300; read-out: Antibacterial activity (MIC)
Procedure: as §1

[5] = test system: S. aureus MRSA USA100 epidemic strain; assay: broth microdilution MIC (CLSI); format: cell-based; details: Staphylococcus aureus; S. aureus MRSA USA100 epidemic strain; read-out: Antibacterial activity (MIC)
Procedure: as §1

[6] = test system: S. epidermidis NRS7 vancomycin intermediate; assay: broth microdilution MIC (CLSI); format: cell-based; details: Staphylococcus epidermidis, read-out: Antibacterial activity (MIC)
Procedure: as §1

[7] = test system: S. aureus MRSA MISA MU50 NRS1; assay: broth microdilution MIC (CLSI); format: cell-based; details: Staphylococcus aureus; S. aureus MRSA MISA MU50 NRS1; read-out: Antibacterial activity (MIC)
Procedure: as §1

[8] = test system: S. aureus MRSA USA200 epidemic strain; assay: broth microdilution MIC (CLSI); format: cell-based; details: Staphylococcus aureus; S. aureus MRSA USA200 epidemic strain; read-out: Antibacterial activity (MIC)
Procedure: as §1

[9] = test system: S. aureus MRSA clinical isolate multi resistant; assay: broth microdilution MIC (CLSI); format: cell-based; details: Staphylococcus aureus; S. aureus MRSA clinical isolate multi resistant; read-out: Antibacterial activity (MIC)
Procedure: as §1

[10] = test system: E. faecalis ATCC51599 vancomycin resistant; assay: broth microdilution MIC (CLSI); format: cell-based; details: Enterococcus faecalis, read-out: Antibacterial activity (MIC)
Procedure: as §1

[11] = test system: S. aureus MRSA clinical isolate ciprofloxacin resistant; assay: broth microdilution MIC (CLSI); format: cell-based; details: Staphylococcus aureus; S. aureus MRSA clinical isolate ciprofloxacin resistant; read-out: Antibacterial activity (MIC)
Procedure: as §1

[12] = test system: S. aureus MRSA MISA MU3 NRS2; assay: broth microdilution MIC (CLSI); format: cell-based; details: Staphylococcus aureus; S. aureus MRSA MISA MU3 NRS2; read-out: Antibacterial activity (MIC)
Procedure: as §1

LpxA = LpxA (Escherichia coli, UniProt P0A722); assay: in vitro enzyme assay, selectivity; format: biochemical; details: ACP utilizing bacterial enzyme
AcpS = AcpS enzyme activity assay; format: biochemical, S. aureus and E. coli; details: [3H]-labeled holo-ACP formation
Procedure: The acpS gene was amplified from S. aureus and E. coli genomic DNA and inserted into a pET23b vector using standard recombinant DNA methodology such that the protein product would result in addition of a C-terminal 6×-His tag in frame with the AcpS open reading frames. […] Recombinant His-Tagged AcpS expression was induced by IPTG addition and overnight culture. Cell lysate was obtained by sequential aspiration through 16, 18 and 21 G needles in a buffer of 50 mM Tris-HCl (pH 8.5), 10 mM MgCl2, 2 mM DTT, 5% glycerol, and further adjusted to pH 8.1 with MES. […] In a typical AcpS enzyme activity assay, 57 μM [^3H]-labeled acyl-CoA, 2 μg apo-ACP, 10 mM MgCl2, 5 mM DTT, 50 mM Na phosphate (pH 7.0), and AcpS in a final volume of 10 μL were incubated at room temperature in a 1.5 mL microcentrifuge tube. At 5, 10, 15, and 20 minutes 2 μL of reaction were added to 750 μL 10% TCA on ice. Bovine serum albumin (BSA; 20 μl of a 25 mg/ml solution) was then added to facilitate precipitation of radiolabeled protein. The samples were centrifuged at 12 000 rcf for 5 min. […] 2 mL of scintillation fluid was added, and the amount of [^3H]-labeled holo-ACP formed was quantified by liquid scintillation counting. Each data point (remaining AcpS enzyme activity) was expressed as a percentage of vehicle control, with the median value of four time points presented.

E. coli AcpS = molecular target: T1, E. coli AcpS (Escherichia coli, UniProt P24224); assay: MIC shift upon AcpS over-expression in E. coli strain D22; format: cell-based; details: E. coli D22 over-expressing E. coli AcpS, IPTG inducible
T1 construct: expressed in transfected cells; host or cells: E. coli strain D22 (porous outer membrane)
From the text: (§2) To determine if AcpS inhibition is the main in vivo target that results in bacterial killing by 5-(2,5-bis(4-chloro-2-isopropylphenyl)thiophen-3-yl)-1H-tetrazole, we over-expressed AcpS in bacteria. An E. coli strain genetically engineered to have a porous outer membrane (strain D22) was transformed with a plasmid expressing either E. coli or S. aureus AcpS under control of an IPTG inducible promoter.

S. aureus AcpS = assay: as above; format: cell-based; details: E. coli D22 over-expressing S. aureus AcpS, IPTG inducible
From the text: as §2

Chain of LpxA (P0A722 whole entry): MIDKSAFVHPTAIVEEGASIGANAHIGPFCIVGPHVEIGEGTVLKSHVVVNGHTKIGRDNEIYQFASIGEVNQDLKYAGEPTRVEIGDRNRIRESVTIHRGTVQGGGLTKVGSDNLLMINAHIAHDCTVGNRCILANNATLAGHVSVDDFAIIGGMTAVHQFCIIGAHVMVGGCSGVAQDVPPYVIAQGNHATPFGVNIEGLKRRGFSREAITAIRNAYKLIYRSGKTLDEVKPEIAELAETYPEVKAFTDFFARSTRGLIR
T1 sequence (P24224 whole entry): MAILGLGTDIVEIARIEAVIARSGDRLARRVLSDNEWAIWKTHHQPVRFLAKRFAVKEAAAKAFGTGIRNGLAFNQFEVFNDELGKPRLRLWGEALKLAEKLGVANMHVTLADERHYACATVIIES

**Q.** Which results are given for CC(C)c1cc(Cl)ccc1-c1cc(-c2nnn[nH]2)c(-c2ccc(Cl)cc2C(C)C)s1 [Test Article, 5-(2,5-bis(4-chloro-2-isopropylphenyl)thiophen-3-yl)-1H-tetrazole]?
**A.** MIC [1]: 2 µg/mL (≈ 4.37 µM); inhibition of fatty acid synthase (fatty acid synthase): did not inhibit; MIC [2]: 0.5 µg/mL (≈ 1.09 µM); MIC [3]: 0.5 µg/mL (≈ 1.09 µM); MIC [4]: 1 µg/mL (≈ 2.19 µM); MIC (S. aureus MRSA ATCC43300): 0.5 µg/mL (≈ 1.09 µM); MIC [5]: 1 µg/mL (≈ 2.19 µM); MIC [6]: 1 µg/mL (≈ 2.19 µM); MIC [7]: 0.5 µg/mL (≈ 1.09 µM); MIC [8]: 0.5 µg/mL (≈ 1.09 µM); MIC [9]: 0.5 µg/mL (≈ 1.09 µM); MIC [10]: 0.5 µg/mL (≈ 1.09 µM); MIC [11]: 1 µg/mL (≈ 2.19 µM); MIC [12]: 1 µg/mL (≈ 2.19 µM); inhibition of LpxA (LpxA): did not inhibit; AcpS inhibition (AcpS): inhibited; shift of MIC to higher concentration upon increased AcpS expression (E. coli AcpS): 32 fold; shift of MIC to higher concentration upon increased AcpS expression (S. aureus AcpS): 16 fold

— patent US12358902B2, “5-(2,5-bis(4-chloro-2-isopropylphenyl)thiophen-3-yl)-1H-tetrazole for the topical treatment of bacterial infections” (DENOVAMED INC., priority 2017, dated 2025)
